Each structure is given as a SMILES string.

One assay deals with TFEB. The experiment in a line: TFEB nuclear translocation assay, HeLa wt cells. The class given is cell-based. The note with it: 2 hrs compound treatment, Table 1 does not say HeLa wt or TRPML1 KO. The method in brief: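 HeLa wt cells were treated with compound for 2 hrs at 37° C, then fixed in 4% PFA and immunostained for TFEB with an Alexa 488 secondary and Hoechst nuclear counterstain. Automated epifluorescence imaging at ×20 gave the ratio of nuclear TFEB intensity to a perinuclear ring region, from which AC50 was derived.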
Take `CC(c1cccc(F)c1N1CCC(COC(C)(C)C)CC1)S(=O)(=O)c1ccc(S(=N)(=O)N(C)C)cc1` (single isomer, unassigned) [Compound A-961, 4-((1-(2-(4-(tert-butoxymethyl)piperidin-1-yl)-3-fluorophenyl)ethyl)sulfonyl)-N,N-dimethylbenzenesulfonimidamide]: the AC50 is no less than 10 µM.

Staying with this assay, now noted: Homo sapiens, HeLa, 2 h, 2 hrs compound treatment, Table 1 does not say HeLa wt or TRPML1 KO.
Molecule `CCOC(=O)N1CCN(c2ccccc2NS(=O)(=O)c2ccc(S(=O)(=O)N(C)C)cc2)CC1` [Compound A-308, ethyl 4-{2-[4-(dimethylsulfamoyl)benzenesulfonamido]phenyl}piperazine-1-carboxylate] displayed an AC50 of 2.01 to 8 µM.

Consider `COCC1(C)CCN(c2ccccc2NS(=O)(=O)C2CCc3ccccc32)CC1` (centres unmarked) [Compound A-597, N-{2-[4-(methoxymethyl)-4-methylpiperidin-1-yl]phenyl}-2,3-dihydro-1H-indene-1-sulfonamide], for which the AC50 was 8.01 to 9.99 µM.

As for `CS(=O)(=O)c1ccc(S(=O)(=O)Nc2cc(Cl)ccc2N2CCOCC2)cc1` [Compound A-299, N-[5-chloro-2-(morpholin-4-yl)phenyl]-4-methanesulfonylbenzene-1-sulfonamide], the AC50 was no less than 10 µM.

In turn, `C[C@@H]1CN(CC2CCN(c3c(F)cccc3NS(=O)(=O)C3(c4ccccc4)CC3)CC2)C[C@H](C)O1` [Compound A-767, N-[2-(4-{[(2R,6S)-2,6-dimethylmorpholin-4-yl]methyl}piperidin-1-yl)-3-fluorophenyl]-1-phenylcyclopropane-1-sulfonamide] gave an AC50 of no more than 2 µM.

For the molecule `COCC1(C)CCN(c2ccccc2NS(=O)(=O)c2ccc3c(c2)CC(OC)C3)CC1` (centres unmarked) [Compound A-707, 2-methoxy-N-{2-[4-(methoxymethyl)-4-methylpiperidin-1-yl]phenyl}-2,3-dihydro-1H-indene-5-sulfonamide], the AC50 is 2.01 to 8 µM.

Molecule `C[C@@H]1CN(CC2CCN(c3c(NS(=O)(=O)c4ccc(S(=O)(=O)N(C)C)cc4)cccc3C(F)(F)F)CC2)C[C@H](C)O1` [Compound A-788, N4-[2-(4-{[(2R,6S)-2,6-dimethylmorpholin-4-yl]methyl}piperidin-1-yl)-3-(trifluoromethyl)phenyl]-N1,N1-dimethylbenzene-1,4-disulfonamide] yielded an AC50 of no more than 2 µM.

In turn, `Cn1nccc1S(=O)(=O)Nc1ccccc1N1CCN(c2ccc(Cl)cc2F)CC1` [Compound A-15, N-{2-[4-(4-chloro-2-fluorophenyl)piperazin-1-yl]phenyl}-1-methyl-1H-pyrazole-5-sulfonamide] yielded an AC50 of no less than 10 µM.

`CN(C)S(=O)(=O)c1ccc(S(=O)(=O)Nc2nc(N3CCN(c4ccc(Cl)cc4F)CC3)nn2C)cc1` [Compound A-68, N1-(3-(4-(4-chloro-2-fluorophenyl)piperazin-1-yl)-1-methyl-1H-1,2,4-triazol-5-yl)-N4,N4-dimethylbenzene-1,4-disulfonamide] showed an AC50 of no less than 10 µM.

Take `CN(C)S(=O)(=O)c1ccc(S(=O)(=O)c2ccccc2N2CCC(c3ccc(Cl)cc3F)CC2)cc1` [Compound A-156, 4-((2-(4-(4-chloro-2-fluorophenyl)piperidin-1-yl)phenyl)sulfonyl)-N,N-dimethylbenzenesulfonamide]: the AC50 lay within 2.01 to 8 µM.

Consider `COc1ccc(S(=O)(=O)Nc2ccccc2N2CCC(O)(c3ccc(F)cn3)CC2)cc1` [Compound A-409, N-{2-[4-(5-fluoropyridin-2-yl)-4-hydroxypiperidin-1-yl]phenyl}-4-methoxybenzene-1-sulfonamide], for which the AC50 was no less than 10 µM.

The molecule `CC(O)C1(C)CCN(c2ccccc2NS(=O)(=O)c2ccc(S(=O)(=O)N(C)C)cc2)CC1` (centres unmarked) [Compound A-557, N1-(2-(4-(1-hydroxyethyl)-4-methylpiperidin-1-yl)phenyl)-N4,N4-dimethylbenzene-1,4-disulfonamide] gave an AC50 of 2.01 to 8 µM.

With `CC(c1cccc(F)c1N1CCC(CN2CCC(F)(F)CC2)CC1)S(=O)(=O)c1ccc(C(F)F)cc1` (single isomer, unassigned) [Compound A-997, 1-((1-(2-(1-((4-(difluoromethyl)phenyl)sulfonyl)ethyl)-6-fluorophenyl)piperidin-4-yl)methyl)-4,4-difluoropiperidine], the AC50 was no more than 2 µM.

Turning to `COc1ccc(S(=O)(=O)Nc2ccccc2N2CCC(c3ccc(F)cc3F)CC2)cn1` [Compound A-123, N-{2-[4-(2,4-difluorophenyl)piperidin-1-yl]phenyl}-6-methoxypyridine-3-sulfonamide], the AC50 lay within 2.01 to 8 µM.

As to `CC(c1cccc(F)c1N1CCC(CN2C[C@@H](C)O[C@H](C)C2)CC1)S(=O)(=O)c1ccc(S(=O)(=O)N(C)C)cc1` (single isomer, unassigned) [Compound A-885, 4-[1-[2-(4-{[2,6-dimethylmorpholin-4-yl]methyl}piperidin-1-yl)-3-fluorophenyl]ethanesulfonyl]-N,N-dimethylbenzene-1-sulfonamide], the AC50 was no more than 2 µM.

`CS(=O)(=O)c1ccc(S(=O)(=O)Nc2ccccc2N2CCC(O)(c3ccc(Cl)cc3F)CC2)cc1` [Compound A-142, N-{2-[4-(4-chloro-2-fluorophenyl)-4-hydroxypiperidin-1-yl]phenyl}-4-methanesulfonylbenzene-1-sulfonamide]: the AC50 was 2.01 to 8 µM.

`COCC1(C)CCN(c2ccccc2NS(=O)(=O)c2ccc(Cl)cc2)CC1` [Compound A-577, 4-chloro-N-{2-[4-(methoxymethyl)-4-methylpiperidin-1-yl]phenyl}benzene-1-sulfonamide] returned an AC50 of 2.01 to 8 µM.

`CC(C)(C)C(=O)N1CCN(c2ccccc2NS(=O)(=O)Cc2ccccc2)CC1` [Compound A-410, N-{2-[4-(2,2-dimethylpropanoyl)piperazin-1-yl]phenyl}-1-phenylmethanesulfonamide] yielded an AC50 of 2.01 to 8 µM.

On to `CN(C)S(=O)(=O)c1ccc(S(=O)(=O)Nc2ccccc2N2CCC(C)(CO)CC2)cc1` [Compound A-436, N4-{2-[4-(hydroxymethyl)-4-methylpiperidin-1-yl]phenyl}-N1,N1-dimethylbenzene-1,4-disulfonamide], for which the AC50 was 2.01 to 8 µM.

`CC1(C)CC2(CCN(c3ccccc3NS(=O)(=O)c3ccc(Br)cc3)CC2)CO1` [Compound A-691, 4-bromo-N-(2-{3,3-dimethyl-2-oxa-8-azaspiro[4.5]decan-8-yl}phenyl)benzene-1-sulfonamide] displayed an AC50 of 2.01 to 8 µM.

`C[C@@H]1CN(CC2CCN(c3c(F)cccc3NS(=O)(=O)c3ccc4c(c3)OC(C)(C)C4)CC2)C[C@H](C)O1` [Compound A-780, N-[2-(4-{[(2R,6S)-2,6-dimethylmorpholin-4-yl]methyl}piperidin-1-yl)-3-fluorophenyl]-2,2-dimethyl-2,3-dihydro-1-benzofuran-6-sulfonamide]: the AC50 is no more than 2 µM.

`CC(c1cccnc1N1CCC(CN2C[C@@H](C)O[C@@H](C)C2)CC1)S(=O)(=O)c1ccc(S(=O)(=O)N(C)C)cc1` (stereo partly drawn) [Compound A-879, 4-{1-[2-(4-{[(2R,6S)-2,6-dimethylmorpholin-4-yl]methyl}piperidin-1-yl)pyridin-3-yl]ethanesulfonyl}-N,N-dimethylbenzene-1-sulfonamide] showed an AC50 of no more than 2 µM.

`CC(N1CCN(c2ccccc2NS(=O)(=O)Cc2ccccc2)CC1)C(F)(F)F` (centres unmarked) [Compound A-542, 1-phenyl-N-{2-[4-(1,1,1-trifluoropropan-2-yl)piperazin-1-yl]phenyl}methanesulfonamide]: the AC50 was no more than 2 µM.
